This note sets out measurements from PubChem BioAssay (NCI).

Some test systems named below: LOX IMVI melanoma; HCT-116 colon; OVCAR-3 ovarian; OVCAR-4 ovarian; A549 NSCLC; HS 578T breast; IGROV1 ovarian; CAKI-1 renal.
Experiment in all cases: DTP human tumour cell line panel, 48 h

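Compound exposure: 48 hours, 5 concentrations, 96-well plates. GI50 is the concentration that inhibits growth by half. At the TGI there is no net growth.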

Regarding `Cn1cc(C2=C(c3cn(C)c4cc(Cl)ccc34)C(=O)NC2=O)c2ccccc21`, the GI50 with LOX IMVI melanoma is 0.198 µM; with HCT-116 colon, 0.113 µM; in the test with OVCAR-3 ovarian, 0.0653 µM; in the test on OVCAR-4 ovarian it was 0.362 µM; in the test on A549 NSCLC, 0.115 µM; with HS 578T breast, 0.0731 µM. Further, the GI50 in the test with IGROV1 ovarian was 0.24 µM. Moreover, the TGI in the test with LOX IMVI melanoma was more than 25 µM; in the test on HCT-116 colon, more than 20.6 µM; in the test with OVCAR-3 ovarian, 0.154 µM; in the test with OVCAR-4 ovarian it was more than 25 µM; in the test with A549 NSCLC, more than 25 µM; with HS 578T breast, 1.93 µM. Moreover, the TGI in the test on IGROV1 ovarian is more than 13.2 µM.
Turning to `Nc1ccc(Sc2ccc3c4c2cccc4c(=O)n2c4ccccc4nc32)cc1`, the GI50 in the test with LOX IMVI melanoma was 3.32 µM; in the test on CAKI-1 renal it was 1.82 µM; with HCT-116 colon, 5.05 µM; in the test on OVCAR-3 ovarian it was 6.4 µM; in the test on OVCAR-4 ovarian it was 6.93 µM; in the test with A549 NSCLC, 2.17 µM. Moreover, the GI50 with HS 578T breast was 10.1 µM; in the test with IGROV1 ovarian, 3.9 µM. The TGI with LOX IMVI melanoma stood at 14.3 µM; in the test on CAKI-1 renal, 8.48 µM; in the test with HCT-116 colon it was 26.7 µM; with OVCAR-3 ovarian, 24.4 µM; with OVCAR-4 ovarian it was 28.8 µM; with A549 NSCLC, 12.9 µM. Further, the TGI with HS 578T breast is more than 100 µM; in the test on IGROV1 ovarian, 32 µM.
`O=C(O)c1ccccc1/C=C1/Nc2ccccc2C1=O`: the TGI with LOX IMVI melanoma, with CAKI-1 renal, in the test with HCT-116 colon, in the test on OVCAR-3 ovarian, in the test on OVCAR-4 ovarian and in the test with A549 NSCLC was more than 100 µM throughout. The TGI with HS 578T breast and with IGROV1 ovarian was more than 100 µM each time.
As to `CC1CCCc2c(CC3CC(=O)NC(=O)C3)nc(N)nc21` (stereo not drawn), the TGI in the test with LOX IMVI melanoma, in the test with CAKI-1 renal, with HCT-116 colon, in the test on OVCAR-3 ovarian, in the test with OVCAR-4 ovarian and with A549 NSCLC was more than 100 µM in each case. The compound further had a TGI in the test on IGROV1 ovarian of more than 100 µM.
Take `CN(C)CC1CCCCCCCCCCC1=O` (stereo not drawn): the GI50 in the test on CAKI-1 renal, in the test on HCT-116 colon, in the test on OVCAR-3 ovarian, in the test on OVCAR-4 ovarian and in the test on A549 NSCLC was more than 100 µM in each case. Moreover, the TGI in the test with CAKI-1 renal, in the test with HCT-116 colon, in the test on OVCAR-3 ovarian, in the test on OVCAR-4 ovarian, in the test on A549 NSCLC and in the test with HS 578T breast was more than 100 µM in each case. The compound also showed a TGI in the test with IGROV1 ovarian of more than 100 µM.
In the case of `O=C(N/N=C\c1cc(Br)cc(Br)c1O)N/N=C/c1cc(Br)cc(Br)c1O`, the GI50 was 2.57 µM in the test on LOX IMVI melanoma; 3.29 µM in the test with CAKI-1 renal; 5.96 µM in the test with HCT-116 colon; 4.03 µM with OVCAR-3 ovarian; 2.5 µM in the test on OVCAR-4 ovarian; 3.74 µM in the test with A549 NSCLC. Also, the GI50 with HS 578T breast was 19.8 µM. Further, the TGI in the test on LOX IMVI melanoma was 12.1 µM; with CAKI-1 renal it was 15.9 µM; in the test with HCT-116 colon, 22.3 µM; in the test with OVCAR-3 ovarian, 16.3 µM; with OVCAR-4 ovarian it was 12.9 µM; in the test with A549 NSCLC it was 14.6 µM. Besides, in the test with HS 578T breast, the TGI was 51.2 µM.
As for `O=C(c1nc2ccccc2[nH]1)C1C(c2cccc([N+](=O)[O-])c2)C2CC3CCCCC3N2[C@@]12C(=O)Nc1cc(Cl)ccc12` (stereo partly drawn), the GI50 in the test on LOX IMVI melanoma is 1.55 µM; in the test with CAKI-1 renal, 1.43 µM; with OVCAR-4 ovarian it was 2.08 µM; in the test with A549 NSCLC it was 2.34 µM; with HS 578T breast it was 1.63 µM; in the test with IGROV1 ovarian it was 1.54 µM. The concentration for total growth inhibition (TGI) in the test on LOX IMVI melanoma turned out to be 2.96 µM; in the test with CAKI-1 renal, 3.94 µM; with OVCAR-4 ovarian it was 8.87 µM; in the test on A549 NSCLC, 6.88 µM; in the test with HS 578T breast, 4.41 µM; in the test with IGROV1 ovarian, 3.69 µM.
As to `S=C1NC2=C(CCOc3c2ccc2ccccc32)C(c2ccc(Cl)cc2)N1` (stereo not drawn), the GI50 in the test on LOX IMVI melanoma was 40.2 µM; with CAKI-1 renal, 32.5 µM; in the test with OVCAR-3 ovarian, 20.9 µM; in the test with OVCAR-4 ovarian, more than 100 µM; in the test with A549 NSCLC, 45.1 µM; in the test on HS 578T breast it was 21.5 µM. In the test on IGROV1 ovarian, the GI50 is 52.8 µM. Moreover, the TGI is more than 100 µM in the test on LOX IMVI melanoma; 72.5 µM with CAKI-1 renal; 70.6 µM in the test with OVCAR-3 ovarian; more than 100 µM with OVCAR-4 ovarian; more than 100 µM with A549 NSCLC; 73.5 µM in the test on HS 578T breast. The compound further registered a concentration for total growth inhibition (TGI) in the test on IGROV1 ovarian of more than 100 µM.
As to `Cc1ccc(/C=C2\CN(C(=O)CCN3CCC(=NO)CC3)C/C(=C\c3ccc(C)cc3)C2=O)cc1`, the GI50 is 0.185 µM in the test on LOX IMVI melanoma, 0.363 µM in the test on HCT-116 colon, 2.43 µM with A549 NSCLC and 3.2 µM with HS 578T breast. Moreover, the TGI in the test on LOX IMVI melanoma is 0.397 µM; in the test with HCT-116 colon it was 1.28 µM; in the test on A549 NSCLC, 7.68 µM; in the test with HS 578T breast, more than 100 µM.
Take `C=C1C(=O)O[C@H]2[C@H]1CC/C(COC(=O)c1ccc(Br)cc1)=C\CC[C@@]1(C)O[C@@H]21`: the GI50 in the test on LOX IMVI melanoma is 0.797 µM; with HCT-116 colon, 0.415 µM; in the test with OVCAR-3 ovarian, 1.02 µM; with OVCAR-4 ovarian it was 1.57 µM; in the test with A549 NSCLC, 1.96 µM; in the test on HS 578T breast, 2.51 µM. Also, the GI50 in the test with IGROV1 ovarian is 1.27 µM. Moreover, the TGI in the test with LOX IMVI melanoma came to 2.19 µM; with HCT-116 colon it was 1.58 µM; in the test with OVCAR-3 ovarian, 2.24 µM; in the test with OVCAR-4 ovarian, 3.68 µM; in the test on A549 NSCLC, 4.56 µM; in the test on HS 578T breast it was 7.64 µM. Also, the TGI in the test with IGROV1 ovarian came out at 2.83 µM.
For `O=C(CN1CCN(c2cc3c(cc2F)c(=O)c(C(=O)O)cn3C2CC2)CC1)Nc1ccc(C(=O)/C=C/c2ccccc2)cc1`, the GI50 in the test on LOX IMVI melanoma was 2.32 µM; with CAKI-1 renal, 1.76 µM; in the test on HCT-116 colon, 0.659 µM; in the test on OVCAR-3 ovarian, 3.65 µM; in the test on OVCAR-4 ovarian it was 9.47 µM; with HS 578T breast, 4.99 µM. Also, the GI50 in the test on IGROV1 ovarian was 3.67 µM. Besides, the TGI with LOX IMVI melanoma was more than 100 µM; with CAKI-1 renal it was 5.32 µM; in the test on HCT-116 colon, 2.68 µM; in the test on OVCAR-3 ovarian, more than 100 µM; in the test with OVCAR-4 ovarian, more than 100 µM; in the test with HS 578T breast, more than 100 µM. In the test with IGROV1 ovarian, this compound came in with a TGI of more than 100 µM.
